Measured values taken from US20170051149A1, “AZOARYLS AS REVERSIBLY MODULATABLE TUBULIN INHIBITORS” (ECOLE NORMALE SUPERIEURE DE LYON, priority 2014, published 2017).

How the values were obtained:
[1] = system: MDA-MB-231 cells; assay: cell cycle analysis by PI flow cytometry; format: cell-based
Method: The effect of compound I.1 on cell cycle progression was assessed by flow cytometry. Briefly, following the application of compound I.1 and exposure to the indicated light regime, cells were harvested on ice and incubated in a hypotonic buffer [0.1% sodium citrate, 0.1% Triton X-100 and 50 μg/mL propidium iodide (PI)] for 30 min at 4° C. Following the PI staining cells were analysed by flow cytometry using FACSCalibur flow cytometer (Becton Dickinson, Heidelberg, Germany) and Cell Quest Pro Software (Becton Dickinson). Subsequently the cell cycle analysis was performed using the FlowJo software (Tree Star Inc., Ashland, Oreg., USA).

[2] = system: MDA-MB-231 cells; assay: in cellulo tubulin imaging, immunostaining of microtubule cytoskeleton; format: cell-based; conditions: 20 h; for effect on microtubule structure: 390 nm regimen (200 ms every 2 min)
Method: In order to investigate the influence of compound I.1 on microtubule structure in cellulo, immunostaining of the microtubule cytoskeleton in MDA-MB-231 cells was performed. Cells were treated with compound I.1 and then kept in dark conditions, or exposed to 390 nm light (200 ms every 2 min), or exposed to a rescue protocol with sequential pulses of 390 nm light (200 ms every 2 min) then immediately 505 nm (600 ms every 2 min). After 20 h of treatment cells were fixed, stained and subjected to confocal microscopy.
Briefly, prior to analysis, cells were washed with pre-warmed PBS then cell extraction buffer (80 mM piperazine-N,N′-bis(2-ethanesulfonic acid) [abbreviated PIPES], 1 mM MgCl2, 5 mM EGTA-K and 0.5% Triton X-100, at pH 6.8) was added to remove monomeric and dimeric tubulin subunits. After 30 s of extraction, cells were fixed for 10 min with 0.5% glutaraldehyde. Following glutaraldehyde quenching with 0.1% NaBH4 in PBS for 7 min, coverslips were blocked with PBS containing 0.2% BSA (bovine serum albumin). Immunostaining was performed using anti-α-tubulin antibody (ab18251) and the AlexaFluor 488 secondary antibody (A 11008), purchased from Abcam (Cambridge, UK) and Invitrogen (Darmstadt, Germany), respectively. Hoechst 33342 (bisbenzimide), purchased from Sigma-Aldrich (catalogue number B2261; Taufkirchen, Germany), was used at a concentration of 1 ug/ml for nuclear staining. Cells were mounted with PermaFluor™ mounting medium (Beckman Coulter) and analyzed with a Zeiss LSM 510 Meta confocal microscope (Jena, Germany). Acquired images were processed using the ImageJ program (National Institutes of Health) and representative images are collected in FIG. 7.

[3] = fluorescence spectrophotometry (excitation and emission spectra); format: physicochemical
Method: Absorption spectra in cuvette (“UV-Vis”) were acquired on a Varian CaryScan 50 (1 cm, 100 μL or 1 mL volume) with Peltier cell temperature control unit maintained at 37° C., in PBS at pH˜7.4 containing a low percentage of cosolvent if needed (typically 2% MeCN or 5% DMSO). A ThorLabs Polychrome V monochromator with a fibre optic cable output directed into the cuvette was used to perform photoisomerisation studies by UV-Vis spectrophotometry although single LEDs of approximately 10-20 mW output, 15-20° cone angle, and 10-15 nm bandwidth FWHM, obtained commercially from Roithner Lasertechnik GmbH, were equally successful in providing repeatable monochromatic photoisomerisation. Separated spectra of trans and […] forms were acquired from the inline Diode Array Detector on the AGILENT 1260 SL coupled LC-MS system after HPLC separation. Fluorescence spectrophotometry (excitation and emission spectra) were acquired on a Varian CaryEclipse fluorescence spectrophotometer.
Fluorescence imaging is commonly used to sensitively, conveniently and non-invasively determine the local concentration of fluorescent species in biological and medical settings. Considering I.25 as an example of a compound of the invention bearing a fluorescent reporter, it was considered desirable that its rhodamine moiety would allow fluorescence detection of I.25.

[4] = 10 nM, 390 nm (150 ms every 30 s), 48 h
[5] = 20 nM, 390 nm (150 ms every 30 s), 48 h
[6] = 50 nM, 390 nm (150 ms every 30 s), 48 h
[7] = 100 nM, 390 nm (150 ms every 30 s), 48 h
[8] = 400 nM, 390 nm (150 ms every 30 s), 48 h
[9] = 600 nM, 390 nm (150 ms every 30 s), 48 h
[10] = 800 nM, 390 nm (150 ms every 30 s), 48 h
[11] = 1 μM, 390 nm (150 ms every 30 s), 48 h
[12] = 2 μM, 390 nm (150 ms every 30 s), 48 h
[13] = 5 μM, 390 nm (150 ms every 30 s), 48 h

SMILES: COc1ccc(N=Nc2cc(OC)c(OC)c(OC)c2)cc1O [I.1, 2-methoxy-5-((3,4,5-trimethoxyphenyl)diazenyl)phenol]
- % G1 [1, 4]: 74.6%
- % G2 [1, 4]: 1.9%
- % S [1, 4]: 17.1%
- mean % G2/M phase [1, 4]: 1.9%
- mean % G2/M phase ([1]; 10 nM, 390 nm + 515 nm (rescue), 48 h): 0.8%
- mean % G2/M phase ([1]; 10 nM, 515 nm (500 ms every 30 s), 48 h): 1.1%
- % G1 [1, 5]: 79.5%
- % G2 [1, 5]: 2.5%
- % S [1, 5]: 18.0%
- % G1 [1, 6]: 77.1%
- % G2 [1, 6]: 1.8%
- % S [1, 6]: 18.0%
- % G1 [1, 7]: 76.6%
- % G2 [1, 7]: 2.0%
- % S [1, 7]: 18.5%
- mean % G2/M phase [1, 7]: 2.0%
- mean % G2/M phase ([1]; 100 nM, 390 nm + 515 nm (rescue), 48 h): 0.9%
- mean % G2/M phase ([1]; 100 nM, 515 nm (500 ms every 30 s), 48 h): 1.2%
- mean % G2/M phase ([1]; 200 nM, 390 nm (1 s every 15 min), 30 h): 8.2%
- mean % G2/M phase ([1]; 200 nM, dark, 30 h): 14.3%
- % G1 [1, 8]: 53.1%
- % G2 [1, 8]: 15.1%
- % S [1, 8]: 27.6%
- mean % G2/M phase [1, 8]: 15.1%
- mean % G2/M phase ([1]; 400 nM, 390 nm + 515 nm (rescue), 48 h): 6.4%
- mean % G2/M phase ([1]; 400 nM, 515 nm (500 ms every 30 s), 48 h): 8.2%
- mean % G2/M phase ([1]; 600 nM, 390 nm (1 s every 15 min), 30 h): 16.3%
- % G1 [1, 9]: 18.0%
- % G2 [1, 9]: 42.6%
- % S [1, 9]: 31.0%
- mean % G2/M phase [1, 9]: 42.6%
- mean % G2/M phase ([1]; 600 nM, 390 nm + 515 nm (rescue), 48 h): 17.3%
- mean % G2/M phase ([1]; 600 nM, 515 nm (500 ms every 30 s), 48 h): 21.7%
- mean % G2/M phase ([1]; 600 nM, dark, 30 h): 12.8%
- % G1 [1, 10]: 9.5%
- % G2 [1, 10]: 54.2%
- % S [1, 10]: 27.5%
- mean % G2/M phase [1, 10]: 54.2%
- mean % G2/M phase ([1]; 800 nM, 390 nm + 515 nm (rescue), 48 h): 24.7%
- mean % G2/M phase ([1]; 800 nM, 515 nm (500 ms every 30 s), 48 h): 32.5%
- % G1 [1, 11]: 5.5%
- % G2 [1, 11]: 52.9%
- % S [1, 11]: 27.6%
- mean % G2/M phase [1, 11]: 52.9%
- mean % G2/M phase ([1]; 1 μM, 390 nm + 515 nm (rescue), 48 h): 22.3%
- mean % G2/M phase ([1]; 1 μM, 515 nm (500 ms every 30 s), 48 h): 28.4%
- mean % G2/M phase ([1]; 1.5 μM, 390 nm (1 s every 15 min), 30 h): 40.6%
- mean % G2/M phase ([1]; 1.5 μM, dark, 30 h): 13.1%
- % G1 [1, 12]: 4.8%
- % G2 [1, 12]: 60.1%
- % S [1, 12]: 26.4%
- mean % G2/M phase ([1]; 5 μM, 390 nm (1 s every 15 min), 30 h): 49.4%
- % G1 [1, 13]: 5.0%
- % G2 [1, 13]: 70.2%
- % S [1, 13]: 23.9%
- mean % G2/M phase ([1]; 5 μM, dark, 30 h): 13.8%
- effect on microtubule structure ([2]; 1.5 μM): degradation of the microtubule cytoskeleton
- effect on microtubule structure ([2]; 4 μM): complete microtubule breakdown plus fragmentation of the nuclei
- nuclear fragmentation and microtubule destruction ([2]; kept in the dark): not observed
- effect of rescue protocol on signs of cytotoxic effects ([2]; rescue: 390 nm (200 ms) then 505 nm (600 ms) every 2 min): dose-dependent reduction of the signs of cytotoxic effects

SMILES: CCN(CC)c1ccc2c(-c3ccccc3C(=O)N3CCN(CCCOc4c(N=Nc5cc(OC)c(OC)c(OC)c5)ccc(OC)c4C)CC3)c3ccc(=[N+](CC)CC)cc-3oc2c1.CCN(CC)c1ccc2c(-c3ccccc3C(=O)N3CCN(CCCOc4c(N=Nc5cc(OC)c(OC)c(OC)c5)ccc(OC)c4C)CC3)c3ccc(=[N+](CC)CC)cc-3oc2c1.O=C[O-].O=C[O-] [I.25, N-(6-(diethylamino)-9-(2-(4-(3-(3-methoxy-2-methyl-6-((3,4,5-trimethoxyphenyl)diazenyl)phenoxy)propyl)piperazine-1-carbonyl)phenyl)-3H-xanthen-3-ylidene)-N-ethylethanaminium bis(formate) salt]
- excitation wavelength giving maximum emission intensity ([3]; emission at 590 nm): 570 nm
- fluorescence emission maximum ([3]; excited at 380 nm or 554 nm, 10 μM, 60:32:8 EtOH:PBS:MeCN, 25° C.): 590 nm
